# Test results from ChEMBL document CHEMBL1129502, “Betulinic acid and dihydrobetulinic acid derivatives as potent anti-HIV agents” (J Med Chem, 1996).
# What was measured:
# [1] = Concentration inhibiting HIV-1 replication by 50% in infected H9 lymphocyte cells; conditions: human, HIV-1-infected H9 lymphocyte cells
# [2] = test system: Human immunodeficiency virus 1; experiment: Inhibitory activity against HIV-1-induced syncytia determined by fusion assay; assay type: functional
# [3] = test system: H9; experiment: Inhibitory activity […] in mock infected H9 cells; assay type: functional, cell-based; conditions: Homo sapiens
# [4] = test system: HIV-1 reverse transcriptase (Human immunodeficiency virus 1); experiment: Inhibitory activity against HIV-RT; no inhibition
# [5] = test system: Human immunodeficiency virus 1; experiment: full Inhibitory activity against HIV-1-induced syncytia; assay type: functional
SMILES,EC50 [1],IC100 [2],IC50 [3],IC50 [4],IC100 [5]
C=C(C)[C@@H]1CC[C@]2(C(=O)O)CC[C@]3(C)[C@H](CC[C@@H]4[C@@]5(C)CC[C@H](OC(=O)CC(C)(C)CC(=O)O)C(C)(C)[C@@H]5CC[C@]43C)[C@@H]12,2.3 µM,50 µM,4.5 µM,–,–
C=C(C)[C@@H]1CC[C@]2(C(=O)O)CC[C@]3(C)[C@H](CC[C@@H]4[C@@]5(C)CC[C@H](OC(=O)CC(C)(C)C(=O)O)C(C)(C)[C@@H]5CC[C@]43C)[C@@H]12 [BEVIRIMAT],< 3.5 µM,34 µM,7 µM,–,–
C=C(C)[C@@H]1CC[C@]2(C(=O)NCCCCCCCC(=O)N[C@@H](CC(C)C)[C@@H](O)CC(=O)O)CC[C@]3(C)[C@H](CC[C@@H]4[C@@]5(C)CC[C@H](O)C(C)(C)[C@@H]5CC[C@]43C)[C@@H]12,0.03 µM,–,2.7 µM,Not Active,3 µM
C=C(C)[C@@H]1CC[C@]2(C(=O)O)CC[C@]3(C)[C@H](CC[C@@H]4[C@@]5(C)CC[C@H](O)C(C)(C)[C@@H]5CC[C@]43C)[C@@H]12 [BETULINIC ACID],1.4 µM,>219 µM,13 µM,–,–
C=C(C)[C@@H]1CC[C@]2(C(=O)O)CC[C@]3(C)[C@H](CC[C@@H]4[C@@]5(C)CC[C@H](OC(=O)COCC(=O)O)C(C)(C)[C@@H]5CC[C@]43C)[C@@H]12,0.01 µM,70 µM,11.7 µM,–,–
CC(C)[C@@H]1CC[C@]2(C(=O)O)CC[C@]3(C)[C@H](CC[C@@H]4[C@@]5(C)CC[C@H](OC(=O)CC(C)(C)CC(=O)O)C(C)(C)[C@@H]5CC[C@]43C)[C@@H]12,5.7 µM,33 µM,5.8 µM,–,–
CC(C)[C@@H]1CC[C@]2(C(=O)O)CC[C@]3(C)[C@H](CC[C@@H]4[C@@]5(C)CC[C@H](O)C(C)(C)[C@@H]5CC[C@]43C)[C@@H]12 [DIHYDROBETULINIC ACID],0.9 µM,–,12.6 µM,–,>218 µM
CC(C)[C@@H]1CC[C@]2(C(=O)O)CC[C@]3(C)[C@H](CC[C@@H]4[C@@]5(C)CC[C@H](OC(=O)COCC(=O)O)C(C)(C)[C@@H]5CC[C@]43C)[C@@H]12,5.6 µM,70 µM,13.1 µM,–,–
C=C(C)[C@@H]1CC[C@]2(C(=O)O)CC[C@]3(C)[C@H](CC[C@@H]4[C@@]5(C)CC[C@H](OC(=O)C(C)(C)CC(=O)O)C(C)(C)[C@@H]5CC[C@]43C)[C@@H]12,2.7 µM,34 µM,15.9 µM,–,–
CC(C)[C@@H]1CC[C@]2(C(=O)O)CC[C@]3(C)[C@H](CC[C@@H]4[C@@]5(C)CC[C@H](OC(=O)CC(C)(C)C(=O)O)C(C)(C)[C@@H]5CC[C@]43C)[C@@H]12,< 3.5 µM,34 µM,4.9 µM,–,–
CC(C)[C@@H]1CC[C@]2(C(=O)O)CC[C@]3(C)[C@H](CC[C@@H]4[C@@]5(C)CC[C@H](OC(=O)C(C)(C)CC(=O)O)C(C)(C)[C@@H]5CC[C@]43C)[C@@H]12,0.56 µM,–,7.7 µM,–,–
